Activity calls are given as the source filed them. The rule behind the calls is not given here.
Legend:
Hepatitis B virus [1] = test: Antiviral activity against HBV infected in human HepG2.2.15 cells assessed as inhibition of HBeAg secretion at 0.4 mM supplemented with fresh medium containing compound every 3 days for 9 days measured after 9 days by ELISA relative to control; format: functional
[2] = Cytotoxicity against human HepG2.2.15 cells assessed as growth inhibition at 0.8 mM by MTT assay relative to control; format: cell-based, HepG2 2.2.15; conditions: read-out: GI
Hepatitis B virus [3] = test: Antiviral activity against HBV infected in human HepG2.2.15 cells assessed as inhibition of HBsAg secretion at 0.4 mM supplemented with fresh medium containing compound every 3 days for 9 days measured after 9 days by ELISA relative to control; format: functional
Hepatitis B virus [4] = test: Antiviral activity against HBV infected in human HepG2.2.15 cells assessed as inhibition of HBeAg secretion at 0.8 mM supplemented with fresh medium containing compound every 3 days for 9 days measured after 9 days by ELISA relative to control; format: functional
Hepatitis B virus [5] = test: Antiviral activity against HBV infected in human HepG2.2.15 cells assessed as inhibition of HBsAg secretion at 0.8 mM supplemented with fresh medium containing compound every 3 days for 9 days measured after 9 days by ELISA relative to control; format: functional
[6] = Cytotoxicity against human HepG2.2.15 cells assessed as growth inhibition at 1 mM by MTT assay relative to control; format: cell-based, HepG2 2.2.15; conditions: read-out: GI
Hepatitis B virus [7] = test: Antiviral activity against HBV infected in human HepG2.2.15 cells assessed as inhibition of HBeAg secretion at 0.2 mM supplemented with fresh medium containing compound every 3 days for 9 days measured after 9 days by ELISA relative to control; format: functional
Hepatitis B virus [8] = test: Antiviral activity against HBV infected in human HepG2.2.15 cells assessed as inhibition of HBsAg secretion at 0.2 mM supplemented with fresh medium containing compound every 3 days for 9 days measured after 9 days by ELISA relative to control; format: functional
[9] = Cytotoxicity against human HepG2.2.15 cells assessed as growth inhibition at 0.4 mM by MTT assay relative to control; format: cell-based, HepG2 2.2.15; conditions: read-out: GI
Hepatitis B virus [10] = test: Antiviral activity against HBV infected in human HepG2.2.15 cells assessed as inhibition of HBsAg secretion at 1 mM supplemented with fresh medium containing compound every 3 days for 9 days measured after 9 days by ELISA relative to control; format: functional
Hepatitis B virus [11] = test: Antiviral activity against HBV infected in human HepG2.2.15 cells assessed as inhibition of HBeAg secretion at 1 mM supplemented with fresh medium containing compound every 3 days for 9 days measured after 9 days by ELISA relative to control; format: functional

Structure (SMILES) | inhibition (INH) (Hepatitis B virus [1]) [%] | inhibition at 800 µM [2] [%] | inhibition (INH) (Hepatitis B virus [3]) [%] | other results
O=C1[C@@H](O)CC[C@@H]2[C@H]3CCCN4CCC[C@@H](CN12)[C@@H]34 | 18.5 | ≥ 25 | 33.2 | 
O=C1CCC[C@@H]2[C@H]3CCCN4CCC[C@@H](CN12)[C@@H]34 [MATRINE] | 16.8 | ≥ 25 | 34.7 | 
O=C1CCCC2=C3CCCN4CCC[C@@H](CN12)[C@@H]34 | 29.9 | ≥ 25 | 22.4 | 
O=C1CCC[C@@H]2[C@H]3CCCN4CCC[C@H](CN12)[C@@H]34 [SOPHORIDINE] | 21.9 | ≥ 25 | 40.2 | 
O=C1CCC[C@@H]2[C@H]3CCC[N+]4([O-])CCC[C@@H](CN12)[C@@H]34 (stereo partly specified) [OXYMATRINE] | 20.3 | ≥ 25 | 38.3 | 
O=C1CCCN2CCC[C@](O)(C2=O)[C@H]2CCCC(=O)N2C1 | 40.4 | ≥ 25 | 46 | 
O=C1CC[C@H]2[C@@H]3[C@H](CCCN13)CN1C(=O)CCC[C@H]21 | 18.3 | ≥ 25 | 32.5 | 
O=C1CCC[C@@H]2[C@H]3CCCN4CCC[C@H](CN12)[C@H]34 |  | ≥ 25 | 13.8 | inhibition (Hepatitis B virus [1]): inactive
O=c1cccc2n1C[C@@H]1CCCN3CCC[C@H]2[C@H]13 |  |  |  | inhibition (INH) (Hepatitis B virus [4]): 13.5%; inhibition (INH) (Hepatitis B virus [5]): 29.5%; inhibition at 1000 µM [6]: ≥ 25%
O=C(O)CCCc1ncc2c3c1CCCN3CCC2 | 33.2 | ≥ 25 | 37.2 | 
O=C(CCCc1ncc2c3c1CCCN3CCC2)N1CCCCC1 |  |  |  | inhibition (INH) (Hepatitis B virus [7]): 38%; inhibition (INH) (Hepatitis B virus [8]): 44.3%; inhibition at 400 µM [9]: ≥ 25%
Nc1ccn([C@@H]2CS[C@H](CO)O2)c(=O)n1 [LAMIVUDINE] |  |  |  | inhibition (INH) (Hepatitis B virus [10]): 31.5 - 32.6%; inhibition (INH) (Hepatitis B virus [11]): 37.5%
O=C1CC[C@H]2C3=C(CCCN13)CN1C(=O)CCC[C@H]21 |  |  |  | inhibition (INH) (Hepatitis B virus [7]): 38.8%; inhibition (INH) (Hepatitis B virus [8]): 33%; inhibition at 400 µM [9]: ≥ 25%
O=C1CCC[C@@H]2[C@H]3CCCN4CCC[C@@H](CN12)[C@H]34 | 17.7 | ≥ 25 | 26.3 | 
O=C(O)CCCC1=NCC2CCCN3CCCC1=C23 (racemic) | 15.1 | ≥ 25 | 29.8 | 
O=C1CCCC2=C3CCC[N+]4([O-])CCC[C@@H](CN12)[C@@H]34 (stereo partly specified) |  |  |  | inhibition (INH) (Hepatitis B virus [4]): 22.6%; inhibition (INH) (Hepatitis B virus [5]): 25.4%; inhibition at 1000 µM [6]: ≥ 25%
O=C1CCCN2CCC[C@](O)(CN3C(=O)CCC[C@H]13)C2=O |  | ≥ 25 | 14.1 | inhibition (Hepatitis B virus [1]): inactive
O=C(O)CCC[C@@H]1N=CC2=C3[C@H]1CCCN3CCC2 | 16.8 | ≥ 25 | 30.8 | 
O=C1CCC[C@@H]2[C@H]3CCCN4CCC[C@@](O)(CN12)[C@@H]34 |  |  |  | inhibition (INH) (Hepatitis B virus [7]): 28.4%; inhibition (INH) (Hepatitis B virus [8]): 33.8%; inhibition at 400 µM [9]: ≥ 25%
